Assay [1] addresses T1, MerTK (Mus musculus, UniProt Q60805).
T1 construct: endogenous in cells; host or cells: RAW264 cells
T1 sequence (Q60805 19-994): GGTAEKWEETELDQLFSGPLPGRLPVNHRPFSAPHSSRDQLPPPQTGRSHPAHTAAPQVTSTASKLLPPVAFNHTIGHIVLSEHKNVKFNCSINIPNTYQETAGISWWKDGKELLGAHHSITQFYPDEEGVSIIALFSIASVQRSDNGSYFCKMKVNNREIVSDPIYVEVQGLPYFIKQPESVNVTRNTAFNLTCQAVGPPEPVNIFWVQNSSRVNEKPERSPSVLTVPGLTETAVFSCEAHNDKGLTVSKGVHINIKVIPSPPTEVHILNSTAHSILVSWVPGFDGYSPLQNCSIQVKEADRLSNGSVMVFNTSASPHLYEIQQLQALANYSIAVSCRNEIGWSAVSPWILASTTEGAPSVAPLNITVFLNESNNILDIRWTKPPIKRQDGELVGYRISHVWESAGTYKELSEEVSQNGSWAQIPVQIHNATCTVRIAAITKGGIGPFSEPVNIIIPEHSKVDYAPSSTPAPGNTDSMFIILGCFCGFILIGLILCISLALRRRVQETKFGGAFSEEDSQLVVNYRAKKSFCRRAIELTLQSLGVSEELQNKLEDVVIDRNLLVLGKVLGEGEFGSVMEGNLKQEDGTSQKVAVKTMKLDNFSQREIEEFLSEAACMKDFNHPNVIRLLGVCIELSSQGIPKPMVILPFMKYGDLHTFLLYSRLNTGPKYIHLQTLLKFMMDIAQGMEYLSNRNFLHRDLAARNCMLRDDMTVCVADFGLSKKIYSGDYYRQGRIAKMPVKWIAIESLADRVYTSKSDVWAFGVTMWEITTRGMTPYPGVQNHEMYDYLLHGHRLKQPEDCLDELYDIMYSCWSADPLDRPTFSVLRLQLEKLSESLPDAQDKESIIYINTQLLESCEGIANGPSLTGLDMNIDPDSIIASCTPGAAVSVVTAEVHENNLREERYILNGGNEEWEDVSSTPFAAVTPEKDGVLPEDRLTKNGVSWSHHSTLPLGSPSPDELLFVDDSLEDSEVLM
In words: MerTK degradation in RAW264 cells (Western blot). It is filed as cell-based. The settings on record: RAW264.7, 0.001-1 μM, 4 hour-incubation at 37° C., read-out: RAW264 Max % MerTK Degradation. As to the method: Compounds were reconstituted in DMSO to make 10 mM stock solutions. RAW264 cells were maintained in DMEM medium containing 10% FBS. Cells were seeded into 6-well plates with 2×10^6 cells per well. 2 μL of diluted compounds were added to cells to the final concentration of 0.001-1 μM. After a 4 hour-incubation at 37° C., cells were washed with DPBS (1×) once. Then RIPA lysis buffer with Halt Protease and Phosphatase Inhibitor Cocktail was added directly to the cells and cells were then incubated on ice for 10 min, then lysate was harvested into 1.5 mL Eppendorf tubes and centrifuged at 14,000 rpm for 10 min at 4° C. and the supernatants were collected for Western blots.
The protein concentration of cell lysates was quantified with Pierce™ BCA Protein Assay Kit. […] BCA working reagents were prepared by mixing BCA reagent A with reagent B in 50: 1 ratio. 200 μL of the BCA working reagents were added to 25 μL of BCA standard or cell lysates in microplate, and mixed thoroughly on a plate shaker for 30 seconds. After incubation at 37° C. for 30 min, the absorbance of samples at 562 nm were measured with EnVision Plate Reader.
Protein lysates were prepared in NuPAGE™ LDS sample buffer and NuPAGE™ sample reducing agent, and incubated at 95° C. for 5 min. […] The proteins were transferred to low fluorescence PVDF membranes using the Trans-Blot Turbo Transfer System. Membranes were then blocked in Odyssey blocking buffer at RT for 1 h followed by primary incubation at 4° C. overnight. The primary antibodies were MerTK goat polyclonal antibody and actin mouse monoclonal antibody. Membranes were washed three times with TBST (1×), and then incubated with IR Dye 800 CW Donkey anti-goat and IR Dye 700 CW Goat anti-mouse secondary antibodies in 1:10,000 dilution at RT for 1 h. The Western blot images were obtained using Odyssey Imaging System.

The target of assay [2] is T2, MerTK (Homo sapiens, UniProt Q12866).
T2 construct: endogenous in cells; host or cells: Jurkat cells
T2 sequence (Q12866 21-999): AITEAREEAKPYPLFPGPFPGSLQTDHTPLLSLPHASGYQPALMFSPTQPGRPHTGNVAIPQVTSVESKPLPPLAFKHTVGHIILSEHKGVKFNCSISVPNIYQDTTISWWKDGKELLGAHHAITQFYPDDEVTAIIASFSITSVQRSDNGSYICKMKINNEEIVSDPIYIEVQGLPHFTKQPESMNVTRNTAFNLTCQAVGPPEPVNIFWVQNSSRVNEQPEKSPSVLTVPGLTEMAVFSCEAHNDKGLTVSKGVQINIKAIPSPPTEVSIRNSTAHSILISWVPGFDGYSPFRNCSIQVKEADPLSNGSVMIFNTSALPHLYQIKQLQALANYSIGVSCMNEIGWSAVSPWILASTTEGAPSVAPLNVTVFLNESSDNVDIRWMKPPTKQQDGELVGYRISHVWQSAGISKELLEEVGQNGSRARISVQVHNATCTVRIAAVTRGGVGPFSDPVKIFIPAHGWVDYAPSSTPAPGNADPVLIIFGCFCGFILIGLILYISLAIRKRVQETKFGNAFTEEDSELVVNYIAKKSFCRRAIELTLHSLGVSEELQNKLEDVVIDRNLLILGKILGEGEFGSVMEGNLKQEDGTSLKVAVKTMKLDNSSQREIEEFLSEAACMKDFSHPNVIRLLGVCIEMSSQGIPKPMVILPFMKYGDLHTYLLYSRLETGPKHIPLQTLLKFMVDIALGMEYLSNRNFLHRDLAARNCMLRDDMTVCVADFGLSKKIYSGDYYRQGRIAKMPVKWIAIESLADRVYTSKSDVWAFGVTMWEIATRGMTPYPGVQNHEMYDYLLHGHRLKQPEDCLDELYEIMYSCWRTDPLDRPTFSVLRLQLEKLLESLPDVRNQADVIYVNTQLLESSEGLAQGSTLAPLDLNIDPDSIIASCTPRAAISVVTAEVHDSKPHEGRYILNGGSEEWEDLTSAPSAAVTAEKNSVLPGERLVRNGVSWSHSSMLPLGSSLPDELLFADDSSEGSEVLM
In words: MerTk degradation in Jurkat cells (Western blot). Format: cell-based. The settings on record: Jurkat, 4 h, 0.001-1 μM, 4 hour-incubation at 37° C., read-out: Jurkat Max % MerTK Degradation. In short, it runs like this:
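Jurkat cells treated 4 h at 37 °C with compound at 0.001-1 μM final. RIPA lysates quantified by BCA, then MerTK probed by Western blot against actin loading control with IR-dye secondaries and Odyssey imaging.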

Counter-ions that a name gives are not always drawn.

Consider `Cc1ccc(CNc2ncc(-c3ccc(CN4CCN(CCOCCOCCOCCOCCNc5cccc6c5C(=O)N(C5CCC(=O)NC5=O)C6=O)CC4)cn3)c(N[C@H]3CC[C@H](O)CC3)n2)cc1` (stereo partly drawn) [I-21, 2-(2,6-Dioxopiperidin-3-yl)-4-[15-(4-[[6-(2-[[(4-methylphenyl)methyl]amino]-4-[[trans-4-hydroxycyclohexyl]amino]pyrimidin-5-yl)pyridin-3-yl]methyl]piperazin-1-yl)-4,7,10,13-tetraoxa-1-azapentadecan-1-yl]-2,3-dihydro-1H-isoindole-1,3-dione], for which the Dmax at MerTK [1] and at MerTK [2] was 20 to 50% in each case.

`CCCCNc1ncc2c(-c3ccc(S(=O)(=O)N4CCN(C(=O)NCCOCCCOCCNc5cccc6c5C(=O)N(C5CCC(=O)NC5=O)C6=O)CC4)cc3)nn([C@H]3CC[C@H](O)CC3)c2n1` (stereo partly drawn) [I-23, 4-((4-(6-(Butylamino)-1-(trans-4-hydroxycyclohexyl)-1H-pyrazolo[3,4-d]pyrimidin-3-yl)phenyl)sulfonyl)-N-(2-(3-(2-((2-(2,6-dioxopiperidin-3-yl)-1,3-dioxoisoindolin-4-yl)amino)ethoxy)propoxy)ethyl)piperazine-1-carboxamide]: the Dmax is 20 to 50% at MerTK [1] and greater than 50% on MerTK [2].

`CCCCNc1ncc(-c2ccc(CN3CCN(CCOCCOCCOCCOCCNc4cccc5c4C(=O)N(C4CCC(=O)NC4=O)C5=O)CC3)cn2)c(N[C@H]2CC[C@H](O)CC2)n1` (stereo partly drawn) [I-25, 4-[15-[4-([6-[2-(Butylamino)-4-[[trans-4-hydroxycyclohexyl]amino]pyrimidin-5-yl]pyridin-3-yl]methyl)piperazin-1-yl]-4,7,10,13-tetraoxa-1-azapentadecan-1-yl]-2-(2,6-dioxopiperidin-3-yl)-2,3-dihydro-1H-isoindole-1,3-dione]: the Dmax at MerTK [1] and at MerTK [2] was greater than 50% in each case.

In the case of `Cc1ccc(CNc2ncc3c(-c4ccc(CN5CCN(CCOCCOCCOCCOCCNc6cccc7c6C(=O)N(C6CCC(=O)NC6=O)C7=O)CC5)cc4)cn([C@H]4CC[C@H](O)CC4)c3n2)cc1` (stereo partly drawn) [I-26, 2-(2,6-Dioxopiperidin-3-yl)-4-[15-(4-[[4-(2-[[(4-methylphenyl)methyl]amino]-7-[trans-4-hydroxycyclohexyl]-7H-pyrrolo[2,3-d]pyrimidin-5-yl)phenyl]methyl]piperazin-1-yl)-4,7,10,13-tetraoxa-1-azapentadecan-1-yl]-2,3-dihydro-1H-isoindole-1,3-dione formate], the Dmax at MerTK [1] and on MerTK [2] was greater than 50% in each case.

In the case of `CCCCNc1ncc2c(-c3ccc(S(=O)(=O)N4CCN(C(=O)CCCCCCCCCCC(=O)N[C@H](C(=O)N5C[C@H](O)C[C@H]5C(=O)NCc5ccc(-c6scnc6C)cc5)C(C)(C)C)CC4)cc3)nn([C@H]3CC[C@H](O)CC3)c2n1` [I-27, (2S,4R)-1-((S)-2-(12-(4-((4-(6-(Butylamino)-1-(trans-4-hydroxycyclohexyl)-1H-pyrazolo[3,4-d]pyrimidin-3-yl)phenyl)sulfonyl)piperazin-1-yl)-12-oxododecanamido)-3,3-dimethylbutanoyl)-4-hydroxy-N-(4-(4-methylthiazol-5-yl)benzyl)pyrrolidine-2-carboxamide], the Dmax at MerTK [1] and at MerTK [2] was greater than 50% throughout.

Turning to `CCCCNc1ncc2c(-c3ccc(S(=O)(=O)N4CCN(C(=O)CCCCCCCCCCNC(=O)COc5cccc6c5C(=O)N(C5CCC(=O)NC5=O)C6=O)CC4)cc3)nn([C@H]3CC[C@H](O)CC3)c2n1` (stereo partly drawn) [I-28, N-(11-(4-((4-(6-(Butylamino)-1-(trans-4-hydroxycyclohexyl)-1H-pyrazolo[3,4-d]pyrimidin-3-yl)phenyl)sulfonyl)piperazin-1-yl)-11-oxoundecyl)-2-((2-(2,6-dioxopiperidin-3-yl)-1,3-dioxoisoindolin-4-yl)oxy)acetamide], the Dmax on MerTK [1] and on MerTK [2] was greater than 50% throughout.

Turning to `CCCCNc1ncc2c(-c3ccc(S(=O)(=O)N4CCN(C(=O)NCCCOCCCOCCCc5cccc6c5n(C)c(=O)n6C5CCC(=O)NC5=O)CC4)cc3)nn([C@H]3CC[C@H](O)CC3)c2n1` (stereo partly drawn) [I-29, 4-((4-(6-(Butylamino)-1-(trans-4-hydroxycyclohexyl)-1H-pyrazolo[3,4-d]pyrimidin-3-yl)phenyl)sulfonyl)-N-(3-(3-(3-(1-(2,6-dioxopiperidin-3-yl)-3-methyl-2-oxo-2,3-dihydro-1H-benzo[d]imidazol-4-yl)propoxy)propoxy)propyl)piperazine-1-carboxamide], the Dmax on MerTK [1] and on MerTK [2] was greater than 50% in each case.

In the case of `CCCCNc1ncc2c(-c3ccc(CN4CCN(CCOCCOCCOCCOCCNc5cccc6c5n(C)c(=O)n6C5CCC(=O)NC5=O)CC4)cc3)nn([C@H]3CC[C@H](O)CC3)c2n1` (stereo partly drawn) [I-37, trans-3-(4-[15-[4-([4-[6-(butylamino)-1-[4-hydroxycyclohexyl]-1H-pyrazolo[3,4-d]pyrimidin-3-yl]phenyl]methyl)piperazin-1-yl]-4,7,10,13-tetraoxa-1-azapentadecan-1-yl]-3-methyl-2-oxo-2,3-dihydro-1H-1,3-benzodiazol-1-yl)piperidine-2,6-dione], the Dmax on MerTK [1] and at MerTK [2] was greater than 50% throughout.

As to `CCCCNc1ncc2c(-c3ccc(CN4CCN(CCOCCOCCOCCOCCCc5ccc6c(c5)n(C)c(=O)n6C5CCC(=O)NC5=O)CC4)cc3)nn([C@H]3CC[C@H](O)CC3)c2n1` (stereo partly drawn) [I-38, trans-3-(5-[1-[4-([4-[6-(butylamino)-1-[4-hydroxycyclohexyl]-1H-pyrazolo[3,4-d]pyrimidin-3-yl]phenyl]methyl)piperazin-1-yl]-3,6,9,12-tetraoxapentadecan-15-yl]-3-methyl-2-oxo-2,3-dihydro-1H-1,3-benzodiazol-1-yl)piperidine-2,6-dione], the Dmax on MerTK [1] and on MerTK [2] was greater than 50% throughout.

Values taken from patent publication US20260042762A1 (Kymera Therapeutics, Inc., priority 2018, published 2026).
